{"source": "ChEMBL document CHEMBL4270534", "about": "“Novel carbazole-triazole conjugates as DNA-targeting membrane active potentiators against clinical isolated fungi” (Eur J Med Chem, 2018)", "key": {"Pseudomonas aeruginosa [1]": {"system": "Pseudomonas aeruginosa", "assay": "Antibacterial activity against Pseudomonas aeruginosa ATCC 27853 after 24 hrs by micro broth dilution method", "assay_type": "functional", "conditions": "ATCC 27853, 24 h"}, "Acinetobacter baumannii": {"system": "Acinetobacter baumannii", "assay": "Antibacterial activity against Acinetobacter baumannii after 24 hrs by micro broth dilution method", "assay_type": "functional"}, "Candida albicans [2]": {"system": "Candida albicans", "assay": "Antifungal activity against Candida albicans after 24 hrs by two-fold broth microdilution assay", "assay_type": "functional"}, "Aspergillus fumigatus [3]": {"system": "Aspergillus fumigatus", "assay": "Synergistic antifungal activity against Aspergillus fumigatus assessed as FIC index after 18 hrs in presence of fluconazole by checkerboard assay", "assay_type": "functional"}, "Candida tropicalis [4]": {"system": "Candida tropicalis", "assay": "Antifungal activity against Candida tropicalis after 24 hrs by two-fold broth microdilution assay", "assay_type": "functional"}, "Candida tropicalis [5]": {"system": "Candida tropicalis", "assay": "Potency index, ratio of fluconazole MIC to test compound MIC for Candida tropicalis", "assay_type": "functional"}, "Candida albicans [6]": {"system": "Candida albicans", "assay": "Induction of cytoplasmic membrane depolarization in Candida albicans measured for 300 secs by DiSC3-5 dye based fluorescence spectral analysis", "assay_type": "functional, organism-based"}, "Candida parapsilosis [7]": {"system": "Candida parapsilosis", "assay": "Antifungal activity against Candida parapsilosis ATCC 22019 after 24 hrs by two-fold broth microdilution assay", "assay_type": "functional", "conditions": "Lodderomyces parapsilosis, ATCC 22019, 24 h"}, "Aspergillus fumigatus [8]": {"system": "Aspergillus fumigatus", "assay": "Synergistic antifungal activity against Aspergillus fumigatus after 18 hrs in presence of fluconazole by checkerboard assay", "assay_type": "functional"}, "Aspergillus fumigatus [9]": {"system": "Aspergillus fumigatus", "assay": "Antifungal activity against Aspergillus fumigatus after 24 hrs by two-fold broth microdilution assay", "assay_type": "functional"}, "Escherichia coli [10]": {"system": "Escherichia coli", "assay": "Antibacterial activity against Escherichia coli ATCC 25922 after 24 hrs by micro broth dilution method", "assay_type": "functional", "conditions": "ATCC 25922, 24 h"}, "Pseudomonas aeruginosa [11]": {"system": "Pseudomonas aeruginosa", "assay": "Antibacterial activity against Pseudomonas aeruginosa after 24 hrs by micro broth dilution method", "assay_type": "functional"}, "Candida parapsilosis [12]": {"system": "Candida parapsilosis", "assay": "Potency index, ratio of fluconazole MIC to test compound MIC for Candida parapsilosis ATCC 22019", "assay_type": "functional"}, "Candida albicans [13]": {"system": "Candida albicans", "assay": "Ratio of MFC to MIC for Candida albicans", "assay_type": "functional"}, "Escherichia coli [14]": {"system": "Escherichia coli", "assay": "Antibacterial activity against Escherichia coli after 24 hrs by micro broth dilution method", "assay_type": "functional"}, "Calf thymus DNA [15]": {"system": "Calf thymus DNA", "assay": "Binding affinity to calf thymus DNA assessed as Stern-Volmer quenching constant at 1 x 10^-5 mol/L in presence of potassium iodide by fluorescence assay (reference value: 12.9 L/mol)", "assay_type": "nucleic-acid assay", "conditions": "Bos taurus"}, "Candida albicans [16]": {"system": "Candida albicans", "assay": "Antifungal activity against Candida albicans ATCC 90023 after 24 hrs by two-fold broth microdilution assay", "assay_type": "functional", "conditions": "ATCC 90023, 24 h"}, "Klebsiella pneumoniae": {"system": "Klebsiella pneumoniae", "assay": "Antibacterial activity against Klebsiella pneumoniae after 24 hrs by micro broth dilution method", "assay_type": "functional"}, "Candida albicans [17]": {"system": "Candida albicans", "assay": "Fungicidal activity against Candida albicans incubated for 24 hrs followed by plating onto tryptic soy agar medium and measured after 24 hrs by broth microdilution method", "assay_type": "functional"}, "Candida parapsilosis [18]": {"system": "Candida parapsilosis", "assay": "Fungicidal activity against Candida parapsilosis ATCC 22019 incubated for 24 hrs followed by plating onto tryptic soy agar medium and measured after 24 hrs by broth microdilution method", "assay_type": "functional", "conditions": "Lodderomyces parapsilosis, ATCC 22019, 24 h"}, "Candida parapsilosis [19]": {"system": "Candida parapsilosis", "assay": "Ratio of MFC to MIC for Candida parapsilosis ATCC 22019", "assay_type": "functional"}, "Candida tropicalis [20]": {"system": "Candida tropicalis", "assay": "Synergistic antifungal activity against Candida tropicalis after 18 hrs in presence of fluconazole by checkerboard assay", "assay_type": "functional"}, "Candida albicans [21]": {"system": "Candida albicans", "assay": "Antifungal activity against Candida albicans at MIC after 10 serial passages", "assay_type": "functional, organism-based"}, "Candida tropicalis [22]": {"system": "Candida tropicalis", "assay": "Synergistic antifungal activity against Candida tropicalis assessed as FIC index after 18 hrs in presence of fluconazole by checkerboard assay", "assay_type": "functional"}, "Enterococcus faecalis": {"system": "Enterococcus faecalis", "assay": "Antibacterial activity against Enterococcus faecalis after 24 hrs by micro broth dilution method", "assay_type": "functional"}, "Candida albicans [23]": {"system": "Candida albicans", "assay": "Synergistic antifungal activity against Candida albicans after 18 hrs in presence of fluconazole by checkerboard assay", "assay_type": "functional"}, "Candida albicans [24]": {"system": "Candida albicans", "assay": "Potentiation of fluconazole-induced antifungal activity against Candida albicans at MIC after 16 serial passages", "assay_type": "functional, organism-based"}, "Candida tropicalis [25]": {"system": "Candida tropicalis", "assay": "Fungicidal activity against Candida tropicalis incubated for 24 hrs followed by plating onto tryptic soy agar medium and measured after 24 hrs by broth microdilution method", "assay_type": "functional"}, "Calf thymus DNA [26]": {"system": "Calf thymus DNA", "assay": "Displacement of neutral dye from calf thymus DNA up to 2 x 10^-5mol/L by UV absorption spectra analysis", "assay_type": "nucleic-acid assay", "conditions": "Bos taurus"}, "Staphylococcus aureus [27]": {"system": "Staphylococcus aureus", "assay": "Antibacterial activity against methicillin-resistant Staphylococcus aureus after 24 hrs by micro broth dilution method", "assay_type": "functional"}, "Staphylococcus aureus [28]": {"system": "Staphylococcus aureus", "assay": "Antibacterial activity against Staphylococcus aureus ATCC 25923 after 24 hrs by micro broth dilution method", "assay_type": "functional", "conditions": "ATCC 25923, 24 h"}, "Calf thymus DNA [29]": {"system": "Calf thymus DNA", "assay": "Binding affinity to calf thymus DNA assessed as hypochromic shift up to 2 x 10^-5mol/L by UV absorption spectral analysis", "assay_type": "nucleic-acid assay", "conditions": "Bos taurus"}, "Calf thymus DNA [30]": {"system": "Calf thymus DNA", "assay": "Binding affinity to calf thymus DNA by UV absorption spectral analysis", "assay_type": "nucleic-acid assay", "conditions": "Bos taurus"}, "Staphylococcus aureus [31]": {"system": "Staphylococcus aureus", "assay": "Antibacterial activity against Staphylococcus aureus after 24 hrs by micro broth dilution method", "assay_type": "functional"}, "Candida tropicalis [32]": {"system": "Candida tropicalis", "assay": "Ratio of MFC to MIC for Candida tropicalis", "assay_type": "functional"}, "Candida albicans [33]": {"system": "Candida albicans", "assay": "Synergistic antifungal activity against Candida albicans assessed as FIC index after 18 hrs in presence of fluconazole by checkerboard assay", "assay_type": "functional"}, "Staphylococcus aureus [34]": {"system": "Staphylococcus aureus", "assay": "Antibacterial activity against Staphylococcus aureus ATCC 29213 after 24 hrs by micro broth dilution method", "assay_type": "functional", "conditions": "ATCC 29213, 24 h"}, "Albumin": {"biological_target": "Albumin (Homo sapiens, UniProt P02768)", "sequence (P02768 whole entry)": "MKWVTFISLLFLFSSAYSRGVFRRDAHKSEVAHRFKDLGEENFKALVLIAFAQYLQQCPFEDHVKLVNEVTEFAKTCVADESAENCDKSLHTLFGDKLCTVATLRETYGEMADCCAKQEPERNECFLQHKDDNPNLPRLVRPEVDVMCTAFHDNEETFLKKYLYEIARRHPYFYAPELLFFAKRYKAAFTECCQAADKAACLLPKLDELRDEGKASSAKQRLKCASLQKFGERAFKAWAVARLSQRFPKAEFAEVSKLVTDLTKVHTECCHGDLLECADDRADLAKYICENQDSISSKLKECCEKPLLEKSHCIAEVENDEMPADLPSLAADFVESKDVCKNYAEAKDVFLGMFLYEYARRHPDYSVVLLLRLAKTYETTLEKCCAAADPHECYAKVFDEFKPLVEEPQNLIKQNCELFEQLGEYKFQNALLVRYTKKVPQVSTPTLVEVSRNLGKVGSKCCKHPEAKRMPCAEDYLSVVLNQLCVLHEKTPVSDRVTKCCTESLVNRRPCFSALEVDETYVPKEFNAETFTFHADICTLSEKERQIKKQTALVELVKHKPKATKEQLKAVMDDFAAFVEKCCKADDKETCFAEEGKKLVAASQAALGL", "assay": "Binding affinity to human serum albumin assessed as increase in peak intensity at tryptophan/tyrosine/phenylalanine residue up to 2 x 10^-5mol/L by UV-vis absorption spectra analysis", "assay_type": "ADME", "conditions": "isolated protein"}}, "note": "The source made the active and inactive calls. No cut-off for these calls is given here."}
{"smiles": "OC(Cn1cncn1)(Cn1c2ccc(Br)cc2c2cc(Br)ccc21)c1ccc(F)cc1F", "note": "(stereo not drawn)", "values": [{"measurement": "MIC", "setting": "Pseudomonas aeruginosa [1]", "result": 16, "unit": "µg/mL"}, {"measurement": "MIC", "setting": "Acinetobacter baumannii", "result": 128, "unit": "µg/mL"}, {"measurement": "MIC", "setting": "Candida albicans [2]", "result": 4, "unit": "µg/mL"}, {"measurement": "fractional inhibitory concentration index (FICI)", "setting": "Aspergillus fumigatus [3]", "result": 0.56}, {"measurement": "MIC", "setting": "Candida tropicalis [4]", "result": 4, "unit": "µg/mL"}, {"measurement": "Ratio", "setting": "Candida tropicalis [5]", "result": 2}, {"measurement": "Activity", "setting": "Candida albicans [6]", "result": "Dose-dependent effect"}, {"measurement": "MIC", "setting": "Candida parapsilosis [7]", "result": 2, "unit": "µg/mL"}, {"measurement": "MIC", "setting": "Aspergillus fumigatus [8]", "result": 16, "unit": "µg/mL"}, {"measurement": "MIC", "setting": "Aspergillus fumigatus [9]", "result": 32, "unit": "µg/mL"}, {"measurement": "MIC", "setting": "Escherichia coli [10]", "result": 32, "unit": "µg/mL"}, {"measurement": "MIC", "setting": "Pseudomonas aeruginosa [11]", "result": 64, "unit": "µg/mL"}, {"measurement": "Ratio", "setting": "Candida parapsilosis [12]", "result": 2}, {"measurement": "Ratio", "setting": "Candida albicans [13]", "result": 2}, {"measurement": "MIC", "setting": "Escherichia coli [14]", "result": 16, "unit": "µg/mL"}, {"measurement": "KSV", "setting": "Calf thymus DNA [15]", "result": 10, "unit": "L/mol"}, {"measurement": "MIC", "setting": "Candida albicans [16]", "result": 8, "unit": "µg/mL"}, {"measurement": "MIC", "setting": "Klebsiella pneumoniae", "result": 128, "unit": "µg/mL"}, {"measurement": "MFC", "setting": "Candida albicans [17]", "result": 8, "unit": "µg/mL"}, {"measurement": "MFC", "setting": "Candida parapsilosis [18]", "result": 4, "unit": "µg/mL"}, {"measurement": "Ratio", "setting": "Candida parapsilosis [19]", "result": 2}, {"measurement": "MIC", "setting": "Candida tropicalis [20]", "result": 2, "unit": "µg/mL"}, {"measurement": "Activity", "setting": "Candida albicans [21]", "result": "Active"}, {"measurement": "fractional inhibitory concentration index (FICI)", "setting": "Candida tropicalis [22]", "result": 0.75}, {"measurement": "MIC", "setting": "Enterococcus faecalis", "result": 32, "unit": "µg/mL"}, {"measurement": "MIC", "setting": "Candida albicans [23]", "result": 0.5, "unit": "µg/mL"}, {"measurement": "Activity", "setting": "Candida albicans [24]", "result": "Active"}, {"measurement": "MFC", "setting": "Candida tropicalis [25]", "result": 8, "unit": "µg/mL"}, {"measurement": "Activity", "setting": "Calf thymus DNA [26]", "result": "Active"}, {"measurement": "MIC", "setting": "Staphylococcus aureus [27]", "result": 4, "unit": "µg/mL"}, {"measurement": "MIC", "setting": "Staphylococcus aureus [28]", "result": 32, "unit": "µg/mL"}, {"measurement": "Activity", "setting": "Calf thymus DNA [29]", "result": "Active"}, {"measurement": "K", "setting": "Calf thymus DNA [30]", "result": 7.8, "unit": "×10³ L/mol"}, {"measurement": "MIC", "setting": "Staphylococcus aureus [31]", "result": 64, "unit": "µg/mL"}, {"measurement": "Ratio", "setting": "Candida tropicalis [32]", "result": 2}, {"measurement": "fractional inhibitory concentration index (FICI)", "setting": "Candida albicans [33]", "result": 0.25}, {"measurement": "MIC", "setting": "Staphylococcus aureus [34]", "result": 16, "unit": "µg/mL"}, {"measurement": "Activity", "setting": "Albumin", "result": "Active"}]}
